Active and inactive are the calls of the source. The calls are words filed in the database; no cut-off is given here.
Key:
[1] = target: T1, Angiotensin-converting enzyme (Rattus norvegicus, UniProt P47820); assay: (§1) In vitro inhibitory activity against Angiotensin I converting enzyme (ACE)
T1 sequence (P47820 whole entry): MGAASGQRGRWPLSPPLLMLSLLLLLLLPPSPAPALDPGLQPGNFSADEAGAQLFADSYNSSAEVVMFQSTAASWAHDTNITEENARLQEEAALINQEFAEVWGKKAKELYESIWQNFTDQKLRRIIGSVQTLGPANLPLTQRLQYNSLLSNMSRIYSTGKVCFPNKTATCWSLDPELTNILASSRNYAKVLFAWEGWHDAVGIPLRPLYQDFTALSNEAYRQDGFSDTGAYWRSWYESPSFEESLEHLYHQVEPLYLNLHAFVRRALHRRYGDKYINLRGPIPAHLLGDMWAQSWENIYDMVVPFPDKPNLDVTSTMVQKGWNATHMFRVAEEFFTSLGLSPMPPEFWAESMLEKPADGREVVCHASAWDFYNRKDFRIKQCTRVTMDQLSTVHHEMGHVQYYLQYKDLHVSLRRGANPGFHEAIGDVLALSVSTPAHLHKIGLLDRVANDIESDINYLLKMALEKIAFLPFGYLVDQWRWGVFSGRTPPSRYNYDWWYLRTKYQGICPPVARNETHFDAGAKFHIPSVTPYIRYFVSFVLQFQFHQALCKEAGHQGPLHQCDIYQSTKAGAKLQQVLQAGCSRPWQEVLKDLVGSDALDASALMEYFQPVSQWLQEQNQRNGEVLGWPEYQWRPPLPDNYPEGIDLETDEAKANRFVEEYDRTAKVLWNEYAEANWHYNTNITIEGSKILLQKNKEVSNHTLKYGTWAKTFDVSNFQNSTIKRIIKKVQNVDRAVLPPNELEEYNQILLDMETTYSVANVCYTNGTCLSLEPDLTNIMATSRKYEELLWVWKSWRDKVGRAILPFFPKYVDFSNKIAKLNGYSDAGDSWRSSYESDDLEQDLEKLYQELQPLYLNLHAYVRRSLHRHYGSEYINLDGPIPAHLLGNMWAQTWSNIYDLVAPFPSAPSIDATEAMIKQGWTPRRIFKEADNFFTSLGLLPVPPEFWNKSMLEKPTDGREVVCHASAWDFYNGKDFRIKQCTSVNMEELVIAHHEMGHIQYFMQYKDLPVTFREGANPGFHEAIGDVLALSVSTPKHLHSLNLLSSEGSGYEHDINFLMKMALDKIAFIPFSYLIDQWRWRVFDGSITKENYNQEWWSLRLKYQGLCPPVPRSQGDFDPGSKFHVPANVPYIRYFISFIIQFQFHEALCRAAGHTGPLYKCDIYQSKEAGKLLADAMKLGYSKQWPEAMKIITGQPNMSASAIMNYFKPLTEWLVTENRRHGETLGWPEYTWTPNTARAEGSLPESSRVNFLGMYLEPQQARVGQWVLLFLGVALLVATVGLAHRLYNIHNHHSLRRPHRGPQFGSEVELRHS

Rattus norvegicus [2] = species on record: Rattus norvegicus; assay: Duration of action on ACE in rat; type: functional
[3] = target: T2, Angiotensin-converting enzyme (Rattus norvegicus) (UniProt P47820); assay: Inhibition of Angiotensin I converting enzyme(ACE) at the dose of 100 mg/kg (ip) in rat; type: organism-based; parameters: dose 100 mg/kg
T2 sequence (whole entry): T1 sequence (P47820 whole entry)

Rattus norvegicus [4] = assay: Diuretic activity (po);NI- No increase; type: functional, organism-based; conditions: Urine
Canis familiaris = assay: Diuretic activity (ip) was tested in dogs; type: functional, organism-based; conditions: Canis lupus familiaris; Urine
[5] = target: T1, Angiotensin-converting enzyme; assay: In vitro inhibitory activity against Angiotensin I converting enzyme(ACE)
Rattus norvegicus [6] = assay: Diuretic activity (ip); NI-No Increase; type: functional, organism-based; conditions: Urine
[7] = target: T2, Angiotensin-converting enzyme (Rattus norvegicus); assay: Inhibition of Angiotensin I converting enzyme(ACE) at the dose of 100 mg/kg (po) in rat; type: organism-based; parameters: dose 100 mg/kg
[8] = target: T2, Angiotensin-converting enzyme (Rattus norvegicus); assay: Inhibition of Angiotensin I converting enzyme(ACE) at the dose of 10 mg/kg (po) in rat; type: organism-based; parameters: dose 10 mg/kg
Rattus norvegicus [9] = assay: Diuretic activity (po); N-Natriuresis; type: functional, organism-based; conditions: Urine
Rattus norvegicus [10] = assay: Diuretic activity (ip);NI- No increase; type: functional, organism-based; conditions: Urine
Rattus norvegicus [11] = assay: Diuretic activity (ip);NI- No Increase; type: functional, organism-based; conditions: Urine
Rattus norvegicus [12] = assay: Diuretic activity (ip);ND- Natriuresis and diuresis; type: functional, organism-based; conditions: Urine
[13] = target: T2, Angiotensin-converting enzyme (Rattus norvegicus); assay: Inhibition of Angiotensin I converting enzyme(ACE) at the dose of 10 mg/kg (ip) in rat; type: organism-based; parameters: dose 10 mg/kg; scale not given: the % may be the effect or the level left
Rattus norvegicus [14] = assay: Diuretic activity (po);ND- Natriuresis and diuresis; type: functional, organism-based; conditions: Urine
[15] = target: T2, Angiotensin-converting enzyme (Rattus norvegicus); assay: as §1; conditions: concentration not given here
[16] = target: T2, Angiotensin-converting enzyme (Rattus norvegicus); assay: Inhibition of Angiotensin I converting enzyme(ACE) at the dose of 30 mg/kg (po) in rat; type: organism-based; parameters: dose 30 mg/kg

SMILES | IC50 [1] [µM] | ACE inhibition [3] [%] | IC50 [5] [µM] | ACE inhibition [7] [%] | ACE inhibition [8] [%] | Duration (Rattus norvegicus [2]) [h] | other results
C[C@H](CS)C(=O)N1CCC[C@H]1C(=O)O |  |  |  |  |  |  | Activity (Canis familiaris): inactive
CCOC(=O)[C@H](CCc1ccccc1)N[C@@H](C)C(=O)N(CC(=O)O)Cc1cc(C(C)(C)C)cc(I)c1O |  | 80 | 80 | < 30 |  |  | Activity (Rattus norvegicus [6]): No increase
CCOC(=O)c1cc(S(N)(=O)=O)c(NCCCC[C@H](C(=O)O)N(Cc2ccccc2)C(=O)[C@H](C)N[C@@H](CCc2ccccc2)C(=O)OCC)cc1Cl.Cl |  | 80 | 22 | < 30 |  | 3 | Activity (Rattus norvegicus [10]): No increase
CCOC(=O)[C@H](CCc1ccccc1)N[C@@H](C)C(=O)N(CC(=O)O)N(C)CC1Nc2cc(Cl)c(S(N)(=O)=O)cc2S(=O)(=O)N1.Cl (stereo not given in full) |  |  |  | 50 |  | <1 | Activity [13]: 80%; Activity (Rattus norvegicus [14]): Natriuresis and diuresis; inhibition [15]: 74%
CCOC(=O)c1cc(S(N)(=O)=O)c(Cl)cc1NCCCC[C@H](C(=O)O)N(Cc1ccccc1)C(=O)[C@H](C)N[C@@H](CCc1ccccc1)C(=O)OCC.Cl |  | 100 | 28 | 80 | 50 | <1 | Activity (Rattus norvegicus [6]): No increase; ACE inhibition [16]: 80%
Br.C[C@H](N[C@@H](CCc1ccccc1)C(=O)O)C(=O)N(C1CCC2(CC1)Nc1cc(Cl)c(S(N)(=O)=O)cc1S(=O)(=O)N2)C(CCCCN)C(=O)O (stereo not given in full) |  |  | 95 | 50 |  | <1 | Activity (Rattus norvegicus [12]): Natriuresis and diuresis

Second part, led by results:

IC50 [1] [µM] | ACE inhibition [3] [%] | IC50 [5] [µM] | ACE inhibition [7] [%] | ACE inhibition [8] [%] | SMILES | Duration (Rattus norvegicus [2]) [h] | other results
0.24 | 100 |  |  |  | NS(=O)(=O)c1cc2c(cc1Cl)NC(CN(CC(=O)O)C(=O)[C@H](CCCCNC(=O)OCc1ccccc1)N[C@@H](CCc1ccccc1)C(=O)O)NS2(=O)=O (stereo not given in full) | <1 | Activity (Rattus norvegicus [4]): No increase
 |  | 2.4 |  | 80 | C[C@H](N[C@@H](CCc1ccccc1)C(=O)O)C(=O)N(Cc1ccccc1)[C@H](CCCCNc1cc(Cl)c(C(=O)O)cc1S(N)(=O)=O)C(=O)O.Cl | 0 | Activity (Rattus norvegicus [9]): N
0.007 |  |  |  |  | Cl.NS(=O)(=O)c1cc(C(=O)NCCCC[C@H](N[C@@H](CCc2ccccc2)C(=O)O)C(=O)N(CC(=O)O)C2Cc3ccccc3C2)ccc1Cl | 3 | Activity (Rattus norvegicus [4]): No increase
0.0065 | 100 |  | 100 | 80 | Cl.NS(=O)(=O)c1cc(C(=O)NCCCC[C@H](N[C@@H](CCc2ccccc2)C(=O)O)C(=O)N2CCC[C@H]2C(=O)O)ccc1Cl | >3 | Activity (Rattus norvegicus [4]): No increase; Activity (Rattus norvegicus [11]): No increase
15 | 80 |  | 80 | 80 | CCOC(=O)[C@H](CCc1ccccc1)N[C@@H](CCCCNC(=O)c1ccc(Cl)c(S(N)(=O)=O)c1)C(=O)N1CCC[C@H]1C(=O)O.Cl | 3 | Activity (Rattus norvegicus [12]): Natriuresis and diuresis

Source: ChEMBL document CHEMBL1124789, “Angiotensin-converting enzyme inhibitors. 9. Novel [[N-(1-carboxy-3-phenylpropyl)amino]acyl]glycine derivatives with diuretic activity” (J Med Chem, 1990)
